One data set has as its system cancer cell lines. The data set is described as follows: MTT cytotoxicity, cancer cell lines overall. In kind it is cell-based, human. The following applies: for cytotoxic properties toward cancer cell lines: K562, MOLT-4, HeLa, MTT, 48 h. As to the method: (§1) Fourteen new benzofuran derivatives were tested for their cytotoxic properties in K562, MOLT-4 (leukemia, suspension cells), HeLa (cervix carcinoma, adherent cells), and normal endothelial cells (HUVEC). First, we measured the viability of cells after 48 h incubation with the given compound at the concentration of 100 μM. Next, for compounds that reduced cancer cells survival for more than 50%, we determined IC50 values. Cells that were exposed to 1% DMSO (a vehicle) served as the control with 100% survival. Cells treated with 1 µM staurosporine served as the internal control of the cytotoxicity experiments.
(§2) Human umbilical vein endothelial cells (Life Technologies, Waltham, MA, USA) were cultured (according to the manufacturer instructions) in Medium 200 supplemented with Low Serum Growth Supplement. 1 × 10^4 HUVEC cells were seeded on each well on a 96-well plate (Nunc). The HeLa (human cervix carcinoma) K562 and MOLT-4 (leukemia) cells were cultured in RPMI 1640 medium supplemented with antibiotics and 10% fetal calf serum (HeLa, K562) in a 5% CO2-95% air atmosphere. 7 × 10^3 HeLa, K562, or MOLT-4 cells were seeded on each well on 96-well plate (Nunc). 24 h later cells were treated with the test compounds and then incubated for an additional 48 hours. Stock solutions of test compounds were freshly prepared in DMSO (dimethylsulfoxide). The final concentrations of compounds that were tested in the cell cultures were: 2 × 10^−1, 1 ×10^−1, 5 × 10^−2, 1 × 10^−2, 1 × 10^−3 and 1 × 10^−4 mM. The concentration of DMSO in the cell culture medium was 1%.
(§3) The values of IC50 (the concentration of test compound that is required to reduce the cell survival fraction to 50% of the control) were calculated from dose-response curves and used as a measure of cellular sensitivity to a given treatment.
(§4) The MTT [3-(4,5-dimethylthiazol-2-yl)-2,5-diphenyltetrazolium bromide; Sigma, St. Louis, MO, USA] assay determined the cytotoxicity of all the compounds, as described previously. Briefly, after 24 h or 48 h of incubation with the drug, the cells were treated with the MTT reagent, and incubation was continued for 2 h. MTT-formazan crystals were dissolved in 20% SDS and 50% DMF at pH 4.7 and absorbance was read at 570 and 650 nm on an ELISA-PLATE READER (FLUOstar Omega, BMG LABTECH GmbH, Ortenberg, Germany). As a control (100% viability), cells that were grown in the presence of medium vehicle only with 1% DMSO were used.

For data set [1], the system named is Human umbilical vein endothelial cells (HUVEC). The data set is described as follows: MTT cytotoxicity assay, HUVEC. The following applies: for IC50: Homo sapiens, HUVEC, 48 h incubation with cells, MTT; for cytotoxicity against human normal endothelial cells: initial screening, 100 μM, 48 h. In kind it is cell-based. How it is done: as §1, §2, §3, §4
For the next data set, the system named is MOLT-4 (leukemia) cells. The data set is described as follows: MTT cytotoxicity assay, MOLT-4. In kind it is cell-based, human. The following applies: for IC50: Homo sapiens, MOLT-4, 48 h incubation with cells, MTT; for reduction of viability of MOLT-4 cells: initial screening, 100 μM, 48 h. As to the method: as §1, §2, §3, §4
In general terms: Tetrazolium dyes change colour on reduction, which living cells bring about.

The test system of the next data set is K562 (leukemia) cells. The data set is described as follows: MTT cytotoxicity assay, K562. As to conditions: for IC50: 48 h incubation with cells, MTT; for reduction of viability of K562 cells: initial screening, 100 μM, 48 h. In kind it is cell-based, human. How it is done:
as §1, §2, §3, §4

Data set [2] relates to HeLa (human cervix carcinoma) cells. The data set is described as follows: MTT cytotoxicity assay, HeLa. Format: cell-based. The following applies: for IC50: Homo sapiens, HeLa, 48 h incubation with cells, MTT; for reduction of viability of HeLa cells: initial screening, 100 μM, 48 h. How it is done: as §1, §2, §3, §4
In data set [3] the test system is caspase 3/7 in K562 cells. The data set is described as follows: Apo-ONE Homogeneous Caspase-3/7 Assay in K562 cells. In kind it is cell-based, human. The following applies: compound at 5 × IC50 (staurosporine 1 µM), 18 h, 1% DMSO normalized to 1.0. As to the method: We have measured the activity of caspases 3 and 7 (caspase 3/7), which are markers of programmed cell death. […] The activity of caspase 3/7 was measured using pro-fluorescent peptide substrate.
20 × 10^3 K562 cells were seeded on each well of 96-well plate in RPMI 1640 medium supplemented with 10% fetal calf serum and antibiotics. Cells were grown for 24 h at 37 °C and 5% CO2. The test compounds were dissolved in DMSO and added to the cell culture. The concentration of tested benzo[b]furans in cell culture was 5 × IC50.
Cells treated with 1% DMSO served as a negative control, while cells incubated with staurosporine (a strong inducer of apoptosis) were used as a positive control. Cells were exposed to test compounds for 18 h at 37 °C and 5% CO2. Subsequently, Apo-ONE® Homogeneous Caspase-3/7 Assay (Promega, Madison, WI, USA) measured the activity of caspase 3 and 7, according to the manufacturer’s instructions. Briefly, the cells were lysed and incubated for 1.5 h with profluorescent substrate for caspase 3 and 7. Next, fluorescence was read at an excitation wavelength of 485 nm and emission of 520 nm with FLUOStar Omega plate reader (BMG-Labtech, Ortenberg, Germany).
Figure 5 Activity of caspase 3 and 7 in K562 cells treated with the test benzofurans 1c, 1e, 2d, 3d, or staurosporine for 18 h. Apoptosis was determined by Apo-ONE® Homogeneous Caspase-3/7 Assay (Promega, Madison, WI, USA). Abbreviations: DMSO—K562 cells treated with 1% DMSO. The caspase activation level in cells exposed to 1% DMSO was normalized to 1.0. Mean values +/− SD are shown.

The subject of data set [4] is plasmid DNA (pcDNA3.1 HisC). The data set is described as follows: Digestion of plasmid DNA with BamHI restriction nuclease. In kind it is biochemical. The following applies: 100 µM, overnight 37 °C, then BamHI 3 h; agarose gel. An excerpt: We hypothesized that a possible explanation of observed cytotoxicity might be due to an interaction of test benzofurans with genomic DNA (e.g., by intercalation). To verify this hypothesis, we investigated whether the test benzofurans have any effect on digestion of a plasmid DNA (pcDNA3.1 HisC) with endonuclease BamH1. pcDNA3.1 HisC contains a unique BamH1 restriction site which allows for plasmid linearization. Plasmid DNA exists in linear, superhelical, and circular forms that differ in electrophoretic mobility (Figure 6 lane 1). Plasmid DNA was converted to a linear form upon digestion with BamH1 (lane 2). […] In the presence of test compounds, pcDNA3.1 HisC was partially digested with Bam H1 restriction enzyme (Figure 6 lanes 4–7). Most of the plasmid DNA was converted to a linear form, however there is a circular form still present.
0.5 μg of plasmid DNA (pcDNAHisC, total length 5.5 kbp) containing a unique BamHI restriction site was dissolved in a 1× BamHI reaction buffer and then incubated overnight at 37 °C with the test compounds or daunorubicin, a strong intercalating agent, which was used as a positive control. The concentration of the test compounds and daunorubicin samples was 100 µM. In the next step, the reaction mixtures were digested with BamHI restriction endonuclease (2 U/μL) for 3 h at 37 °C. The total reaction volume was 10 μL. Products of the reaction were subjected to the 1% agarose gel electrophoresis in TBE buffer. The gel was stained with ethidium bromide and DNA fragments were visualized under a UV lamp (GBox, Syngene, Cambridge, UK).
Figure 6 Digestion of pcDNA3.1HisC (total length 5.5kbp) with BamH1 endonuclease. M—marker DNA; 1—not digested plasmid DNA; 2—plasmid DNA digested with BamH1 (DNA present in linear form); 3—plasmid DNA + daunorubicin + BamH1; 4—plasmid DNA + 1c + BamH1; 5—plasmid DNA + 2d + BamH1; 6—plasmid DNA + 1e + BamH1; and, 7—plasmid DNA + 3d + BamH1.

“Also recorded” adds a separate entry of the source. Where only a bound is given, the exact number is not on record here.

Usually melting point stands for the temperature of the solid-liquid transition. In turn, `COc1cc2c(C)c(C(=O)O)oc2c(C(C)=O)c1OC` [Compound 1, 7-Acetyl-5,6-dimethoxy-3-methylbenzofuran-2-carboxylic acid] returned a melting point of 212 to 214 °C.
`COc1cc2c(C(N)=O)c(C)oc2cc1C(C)=O` [Compound 3c, 6-Acetyl-5-methoxy-2-methylbenzofuran-3-carboxamide] displayed a melting point of 223 to 224 °C. Further, in the data set on cancer cell lines, the “cytotoxic properties toward cancer cell lines” value is recorded as “did not show the cytotoxic properties; also recorded: loss of cytotoxic properties”.
Regarding `COc1cc2c(C(=O)O)c(C)oc2cc1C(C)=O` [Compound 3b, 6-Acetyl-5-Methoxy-2-Methylbenzofuran-3-Carboxylic Acid], the melting point is 249 to 250 °C.
In general, IC50 refers to the concentration that inhibits the measured activity by half. Higher therefore signals lower potency. For the compound `COC(=O)c1c(CBr)oc2cc(C(C)=O)c(OC)cc12` [Compound 3d, Methyl 6-acetyl-2-(bromomethyl)-5-methoxybenzofuran-3-carboxylate], the “decrease of cytotoxicity against human cancer cells compared to the lead compounds VIII-X” value in the data set with cancer cell lines (compared to lead compounds VIII-X) is 5–10 folds. Also, the IC50 in data set [1] is 6 µM; in the data set on MOLT-4 (leukemia) cells it was 55 µM; with K562 (leukemia) cells, 28 µM; in the data set on K562 (leukemia) cells (Homo sapiens, K562, 48 h), below 50 µM; in data set [2] it was 35 µM. Further, the “cytotoxicity against human normal endothelial cells” value in data set [1] was “cytotoxic”. Also, the “reduction of viability of MOLT-4 cells” value in the data set on MOLT-4 (leukemia) cells was “more than 50%”. The “reduction of viability of K562 cells” value with K562 (leukemia) cells is “more than 50%”. For the same compound, the “reduction of viability of HeLa cells” value in data set [2] was “more than 50%”. In addition, the “increase in the activity of caspase 3/7” value in data set [3] is “minimal, if any”.
`COc1cc2c(C)c(Br)oc2c(C(C)=O)c1OC` [Compound 1d, 1-(2-Bromo-5,6-dimethoxy-3-methylbenzofuran-7-yl)ethanone] displayed a melting point of 94 to 95 °C.
For the compound `COc1cc2c(C)c(Br)oc2c(C(=O)CBr)c1OC` [Compound 1e, 2-Bromo-1-(2-bromo-5,6-dimethoxy-3-methylbenzofuran-7-yl)ethanone], in data set [1], the IC50 stood at 30 µM and the “cytotoxicity against human normal endothelial cells” value is listed as “cytotoxic”. For the same compound, in the data set with MOLT-4 (leukemia) cells, it took 70 µM to reach half-maximal inhibition (IC50) and the “reduction of viability of MOLT-4 cells” value is recorded as “more than 50%”. For the same compound, in the data set with K562 (leukemia) cells, half-maximal inhibition (IC50) required 41 µM and the “reduction of viability of K562 cells” value is recorded as “more than 50%”. The IC50 with K562 (leukemia) cells (Homo sapiens, K562, 48 h) was below 50 µM. Further, the “inhibition of digestion of plasmid DNA with BamH1 / interaction with DNA” value in data set [4] is recorded as “to some extent, interact with DNA”. In data set [2], the IC50 came to 28 µM and the “reduction of viability of HeLa cells” value was “more than 50%”. Also, the “increase in the activity of caspase 3/7” value in data set [3] was “five-fold”.
Turning to `COC(=O)c1oc2c(C(C)=O)c(OC)c(OC)cc2c1C` [Compound 1b, Methyl 7-acetyl-5,6-dimethoxy-3-methyl-1-benzofuran-2-carboxylate], the melting point lay in the range of 98 to 100 °C.
Compound `COC(=O)c1c(C)oc2cc(C(O)C(Br)Br)c(OC)cc12` (centres unmarked) [Compound 3a, Methyl 6-(2,2-dibromo-1-hydroxyethyl)-5-methoxy-2-methylbenzofuran-3-carboxylate] returned a melting point of 170 to 172 °C. In addition, in data set [1], the IC50 was found to be 67 µM and the “cytotoxicity against human normal endothelial cells” value was “cytotoxic”. In addition, in the data set with MOLT-4 (leukemia) cells, half-maximal inhibition (IC50) required 85 µM and the “reduction of viability of MOLT-4 cells” value was “more than 50%”. The same compound gave an IC50 in the data set with K562 (leukemia) cells (Homo sapiens, K562, 48 h) of 85 µM. For the same compound, in the data set on K562 (leukemia) cells, the “reduction of viability of K562 cells” value is “more than 50%”. Besides, in data set [2], the IC50 worked out at 80 µM and the “reduction of viability of HeLa cells” value is listed as “more than 50%”.
In the case of `CC(=O)c1cc2oc(C)c(C(N)=O)c2cc1O` [Compound 2a, 6-Acetyl-5-hydroxy-2-methylbenzofuran-3-carboxamide], in the data set on cancer cell lines, the “cytotoxic properties toward cancer cell lines” value is listed as “did not show the cytotoxic properties; also recorded: loss of cytotoxic properties”.
Same read-out and setting: under `CC(=O)c1cc2oc(C)c(C(N)=O)c2c(Br)c1O` [Compound 2b, 6-Acetyl-4-bromo-5-hydroxy-2-methylbenzofuran-3-carboxamide] stands “loss of cytotoxic properties”.
Take `COc1cc2c(C)c(C(N)=O)oc2c(C(C)=O)c1OC` [Compound 1a, 7-Acetyl-5,6-dimethoxy-3-methylbenzofuran-2-carboxamide]: the melting point lay in the range of 203 to 205 °C. Also, the “cytotoxic properties toward cancer cell lines” value with cancer cell lines is reported as “did not show the cytotoxic properties; also recorded: loss of cytotoxic properties”.
Turning to `CN[C@@H]1C[C@H]2O[C@@](C)([C@@H]1OC)n1c3ccccc3c3c4c(c5c6ccccc6n2c5c31)C(=O)NC4` [staurosporine, reference compound], the “increase in the activity of caspase 3/7” value in data set [3] is on record as “significantly increased”.
As for `COc1cccc2c1C(=O)c1c(O)c3c(c(O)c1C2=O)C[C@@](O)(C(C)=O)C[C@@H]3O[C@H]1C[C@H](N)[C@H](O)[C@H](C)O1` [Daunorubicin, reference compound], the “inhibition of digestion of plasmid DNA with BamH1 / interaction with DNA” value in data set [4] is given as “completely inhibited”.
In the case of `CC(=O)c1cc2oc(C)c(C(=O)O)c2c(Br)c1O` [Compound 2e, 6-Acetyl-4-bromo-5-hydroxy-2-methylbenzofuran-3-carboxylic acid], the melting point is 196 to 197 °C.

For the origin of these results see publication PMC6514909, “Synthesis of New Derivatives of Benzofuran as Potential Anticancer Agents” (Molecules, 2019).
